These results are taken from PMC5520057, “Modulation of nongenomic activation of PI3K signalling by tetramerization of N-terminally-cleaved RXRα” (Nature Communications, 2017).

Assay [1] deals with tRXRα. Nature of the assay: MCF-7/tRXRα xenograft tumours, immunostaining. The assay is classed as in vivo. The conditions noted are these: nude mice; K-80003 20 mg kg^−1 i.p., 12 days; anti-Myc. The method, then: (§1) Cells mounted on glass slides or tumour tissue frozen sections (5-μm-thick) were washed with PBS and fixed in 4% paraformaldehyde (PFA) for 15 min and permeabilized with PBS containing 0.1% Triton X-100 for 15 min. Fixed cells or tumour tissues were blocked with 5 mg ml^−1 BSA in PBS for 30 min at room temperature, followed with incubation with primary antibodies for 3 h and secondary antibodies at room temperature for 1 h and co-stained with 4′6′-diamidino-2-phenylindole (DAPI) to visualize nuclei. The images were taken under an LSM-510 confocal laser scanning microscope system (Carl Zeiss).
(§2) For nude mice xenograft study, Myc-RXRα and Myc-tRXRα cloned into pcdna3.0 vector were stably transfected into MCF-7 cells, and the resulting stable clones and control clone (2 × 10^6 cells in 100 μl) were injected subcutaneously into nude mice (BALB/c, SPF grade, 16–18 g, 4–5-week old). For drug treatment, mice were intraperitoneally injected (i.p.) daily with K-80003 (20 mg kg^−1) diluted in Tween-80 or vehicle (tween-80). Body weight and tumour size were measured every 2 days. Mice were killed after 12-day drug treatment and the tumours removed for various assessments. […]

The test system of assay [2] is RXRα. Nature of the assay: BS3 crosslinking, transfected full-length RXRα. Type of assay: cell-based. The conditions noted are these: HepG2 cells; K-80003 (5 × 10^−6 M) for 6 h; BS3 1 mM; western blotting. The method, then: (§3) Cell lysates were then prepared and incubated with bis[sulfosuccinimidyl] suberate (BS3, Pierce) dissolved in dimethyl sulfoxide to a final concentration of 1 mM. The reactions were stopped with protein gel loading buffer. Samples were resolved by SDS/PAGE in 8% acrylamide gels and protein bands were visualized by western blotting.
Background: In western blotting, separated proteins are transferred to a membrane and probed.

In assay [3] the test system is tRXRα. Nature of the assay: Nuclear/cytoplasmic fractionation with BS3 crosslinking. Type of assay: cell-based. Conditions: HEK293T cells, K-80003 (5 × 10^−6 M) for 6 h, one of three similar experiments. The method, then: as §3
(§4) Proteins or cell lysates were electrophoresed by SDS-PAGE gel and transferred to polyvinylidene difluoride (PVDF) membrane. The membranes were blocked with 5% skimmed milk in TBST (50 mM Tris-HCl (pH 7.4), 150 mM NaCl and 0.1% Tween20) for 1 h, then incubated with primary antibodies and secondary antibodies and detected using ECL system (Thermo). The dilutions of the primary antibodies were anti-RXRα (ΔN197, Santa Cruz) in 1:1,000, anti-PARP (H-250, Santa Cruz) in 1:3,000, anti-p85α (Millipore) in 1:1,000, anti-p-AKT (D9E, Cell Signaling Technology) in 1:1000, anti-AKT1/2/3 (H-136, Santa Cruz) in 1:1,000, anti-β-actin (Sigma) in 1:5,000, anti-c-myc (9E10, Santa Cruz) in 1:3,000, anti-HA (F-7, Santa Cruz) in 1:3,000, anti-Flag (F1804, Sigma) in 1:3,000. Images of all uncropped western blots can be found in Supplementary Figs 10–14.

In another assay the test system is MCF-7 xenograft tumours. Kind of assay: MCF-7/tRXRα xenograft tumours, western blotting. Type of assay: in vivo, nude mice. The conditions noted are these: MCF-7/tRXRα tumour; K-80003 20 mg kg^−1 i.p., 12 days. The method, then:
as §4
(§5) For nude mice xenograft study, Myc-RXRα and Myc-tRXRα cloned into pcdna3.0 vector were stably transfected into MCF-7 cells, and the resulting stable clones and control clone (2 × 10^6 cells in 100 μl) were injected subcutaneously into nude mice (BALB/c, SPF grade, 16–18 g, 4–5-week old). For drug treatment, mice were intraperitoneally injected (i.p.) daily with K-80003 (20 mg kg^−1) diluted in Tween-80 or vehicle (tween-80). Body weight and tumour size were measured every 2 days. […]

A further assay deals with tRXRα/R316E. Nature of the assay: BS3 crosslinking, tRXRα/R316E. Type of assay: cell-based. The conditions noted are these: MCF-7 cells, 9-cis-RA (10^−7 M) or K-80003 (5 × 10^−6 M) for 6 h. The method, then:
as §3

The next assay relates to RXRα-LBD/L433D. Nature of the assay: ITC, RXRα-LBD/L433D mutant. Type of assay: binding, human. Conditions: 25 °C, protein 50 μM, pH 7.5, compound 1 mM. The method, then:
(§6) The human RXRα LBD (residues Thr223 to Thr462) cloned as an N-terminal histidine-tagged fusion protein in pET15b expression vector was expressed in Escherichia coli BL21 strain (Stratagene). After sonication, cell extract was incubated with the His60 Ni Superflow resin, and His-tagged RXRα-LBD-resin complexes were washed, eluted and concentrated to 5 mg ml^−1 for subsequent trails. For crystallization experiment, bovine thrombin (Sigma) was used to cleave the His tag from the purified His-tagged RXRα-LBD. The resulting His tag was removed on the Resource-Q column (GE) using 0.1–1 M NaCl gradient and the Tris-Cl pH 8 buffer. RXRα-LDB was further purified using gel filtration on a Superdex 200 2660 column (GE) pre-equilibrated with the 75 mM NaCl, 20 mM Tris-Cl buffer (pH 8).
Binding of compounds to RXRα-LBD or mutant was studied in […] at 25 °C using isothermal titration calorimetry (ITC) assay that measures the heat either released or absorbed during binding. The purified His-tagged RXRα-LBD or mutant protein (50 μM in 25 mM Tris-HCl, pH 7.5, 150 mM NaCl, 0.1% DMSO) was placed in the sample cell of MicroCal VP-ITC titration calorimeter. The compounds to be studied were diluted to a concentration of 1 mM in the same buffer. All solutions were degassed before the titrations. […] Calorimetric data were analysed using MicroCal Origin software (version 7.0).
On the technique in general: Isothermal titration calorimetry measures the heat released or taken up as one component is titrated into another.

For the next assay, the system named is PI3K signalling. Also on record: method as in PMID 20541701. Conditions: cited from earlier work.
Another assay deals with RXRα-LBD/F439A. Nature of the assay: Non-denaturing gel electrophoresis, F439A mutant. The conditions noted are these: K-80003 (20 μM), 3 h at 4 °C. Type of assay: biochemical, human. The method, then:
as §6

Assay [4] deals with RXRα. Nature of the assay: MMTV-PyMT tumours, RXRα immunostaining. The assay is classed as in vivo, MMTV-PyMT mice. The conditions noted are these: diet with K-80003 (100 mg kg^−1) for 4 weeks; Δ197 anti-RXRα antibody. The method, then: as §1, §2
Another assay deals with MMTV-PyMT mammary tumour. Nature of the assay: MMTV-PyMT tumours, western blotting. Type of assay: in vivo, MMTV-PyMT mice. Conditions: diet with K-80003 (100 mg kg^−1) for 4 weeks. The method, then:
as §4, §5

As to `CC1=C(CC(=O)O)c2cc(F)ccc2/C1=C\c1ccc(C(C)C)cc1` [K-80003], the “subcellular localization of tRXRα in xenograft tumours” value with tRXRα [1] was “a significant amount of tRXRα was found in the nucleus”. Besides, the “tetramerization of full-length RXRα” value in the assay with RXRα [2] is listed as “failed to promote the tetramerization of the full-length RXRα”. Further, the “distribution of tetrameric tRXRα” value in the assay on tRXRα [3] is given as “found exclusively in the nuclear fraction”. In the assay on MCF-7 xenograft tumours, the “AKT activation in tumours” value is reported as “reduced AKT activation” and the “PARP cleavage in tumours” value was “enhanced PARP cleavage”. Besides, the “oligomeric state of tRXRα/R316E” value with tRXRα/R316E is reported as “strong tetrameric species of tRXRα/R316E but not tRXRα/F313A independent of the presence of 9-cis-RA or K-80003”. In addition, the “binding to RXRα-LBD/L433D” value in the assay on RXRα-LBD/L433D is recorded as “failed to bind to RXRα-LBD/L433D”. Also, the “inhibition of activation of PI3K signalling” value with PI3K signalling was “inhibits its interaction with p85α and activation of PI3K signalling”. The “effect on tetramerization of F439A mutant” value with RXRα-LBD/F439A is “impaired the tetramerization of respective mutants by K-80003”. In the assay with RXRα [4], the “RXRα staining localization in PyMT tumours” value was “mainly found in the nucleus”. For the same molecule, in the assay with MMTV-PyMT mammary tumour, the “PARP cleavage in PyMT tumours” value is “induction of PARP cleavage” and the “cyclin D expression in PyMT tumours” value was “inhibition of cyclin D expression”.
